Data published in patent US20050032822A1, “Dithiocarbamate derivatives and their use as antibacterial agents” (priority 2001, published 2005).
Converted amounts (≈) assume the structure as drawn.

Test system: M. tuberculosis H37Rv and two drug-resistant clinical isolates
Experiment: MIC and MBC against M. tuberculosis in liquid Shkolnikova medium / Lowenstein-Jensen medium
Assay type: cell-based, Mycobacterium tuberculosis
Details: for MIC (minimal inhibitory concentration) against Mycobacterium tuberculosis: mean values of the three strains (H37Rv and two drug-resistant clinical isolates), 14 days at 37° C.; for MBC (minimal bactericidal concentration) against Mycobacterium tuberculosis: mean values of the three strains, read after 21-28 days on solid drug free Lowenstein-Jensen medium

| Molecule | MIC (minimal inhibitory concentration) against Mycobacterium tuberculosis [µg/mL] | MBC (minimal bactericidal concentration) against Mycobacterium tuberculosis [µg/mL] |
| --- | --- | --- |
| CN(C)C(=S)Sc1c(C#N)cc([N+](=O)[O-])cc1[N+](=O)[O-] [Subst. Nr. 9, 3,5-dinitro-2-dimethyldithiocarbamoylbenzonitrile] | 4.78 (≈ 15.3 µM) | 6.25 (≈ 20 µM) |
| CCCOc1ncnc(SC(=S)N(C)C)c1[N+](=O)[O-] [Subst. Nr. 11, 4-propoxy-6-dimethyldithiocarbamoyl-5-nitropyrimidine] | 9.37 (≈ 31 µM) | 12.5 (≈ 41.3 µM) |
| CNc1ncnc(SC(=S)N2CCCC2)c1[N+](=O)[O-] [Subst. Nr. 12, 4-methylamino-6-tetramethylenedithiocarbamoyl-5-nitropyrimidine] | 3.64 (≈ 12.2 µM) | 8.33 (≈ 27.8 µM) |
| CCOc1nc(C)nc(SC(=S)N2CCCC2)c1[N+](=O)[O-] [Subst. Nr. 10, 4-ethoxy-2-methyl-6-tetramethylenedithiocarbamoyl-5-nitropyrimidine] | 5.21 (≈ 15.9 µM) | 8.33 (≈ 25.4 µM) |
| CN(C)c1ncnc(SC(=S)N2CCCC2)c1[N+](=O)[O-] [Subst. Nr. 13, 4-dimethylamino-6-tetramethylenedithiocarbamoyl-5-nitropyrimidine] | 3.12 (≈ 9.96 µM) | 6.25 (≈ 19.9 µM) |
| CCN(CC)C(=S)Sc1c(C#N)cc([N+](=O)[O-])cc1[N+](=O)[O-] [Subst. Nr. 3, 3,5-dinitro-2-diethyldithiocarbamoylbenzonitril] | 5.37 (≈ 15.8 µM) | 7.29 (≈ 21.4 µM) |
| CNc1ncnc(SC(=S)N(C)C)c1[N+](=O)[O-] [Subst. Nr. 7, 4-methylamino-6-dimethyldithiocarbamoyl-5-nitropyrimidine] | 7.78 (≈ 28.5 µM) | 10.42 (≈ 38.1 µM) |
| CCN(CC)C(=S)Sc1ncnc(NC2CC2)c1[N+](=O)[O-] [Subst. Nr. 2, 4-cyclopropylamino-6-diethyldithiocarbamoyl-5-nitropyrimidine] | 20.8 (≈ 63.5 µM) | 29.1 (≈ 88.9 µM) |
| 4-isopropylamino-6-diethyldithiocarbamoyl-5-nitropyrimidine [Subst. Nr. 1] | 31.3 | 100.0 |
| CCOc1nc(C)nc(SC(=S)N(CC)CC)c1[N+](=O)[O-] [Subst. Nr. 6, 4-ethoxy-2-methyl-6-diethyldithiocarbamoyl-5-nitropyrimidine] | 20.8 (≈ 62.9 µM) | 41.7 (≈ 126 µM) |
| CCN(CC)C(=S)Sc1ncnc(NC)c1[N+](=O)[O-] [Subst. Nr. 4, 4-methylamino-6-diethyldithiocarbamoyl-5-nitropyrimidine] | 6.25 (≈ 20.7 µM) | 12.5 (≈ 41.5 µM) |
| CN(C)C(=S)Sc1ncnc(N(C)C)c1[N+](=O)[O-] [Subst. Nr. 8, 4-dimethylamino-6-dimethyldithiocarbamoyl-5-nitropyrimidine] | 7.81 (≈ 27.2 µM) | 12.5 (≈ 43.5 µM) |
| CCN(CC)C(=S)Sc1ncnc(N(C)O)c1[N+](=O)[O-] [Subst. Nr. 5, 4-methylhydroxyamino-6-diethyldithiocarbamoyl-5-nitropyrimidine] | 9.38 (≈ 29.6 µM) | 12.5 (≈ 39.4 µM) |
